Where two headings read alike, the source gives them in different places.
How the values were obtained:
[1] = DMBA carcinogen treatment, survival and tumor development; format: in vivo, mouse; conditions: treated at day 7
Experimental: Littermate controls were analyzed for tumor-free survival. Animals were genotyped by PCR and allowed to age undisturbed in a maximum of 5 mice per cage with standard chow and water ad libitum in a standard light-day cycle. Mice were monitored three times a week and were sacrificed when moribund or if external tumors exceeded 2 cm in diameter and scored as a death in survival analysis. Those animals with cancer, as determined by histological analysis, were scored as an event in the tumor-free survival Kaplan-Meier analysis. For lung tumors, analysis of tumor load was carried out as done previously (Zhang et al., 2001).
Seven-day old pups were treated with 5% 7,12-dimethylbenz-alpha-anthracene (DMBA) in acetone by pipetting 50 μl onto the back, and allowing it to air-dry. Mice were monitored three times a week for signs of morbidity and underwent full autopsies for tumor detection.

thymocytes = experiment: Thymocyte apoptosis / cell viability (propidium iodide, flow cytometry); format: cell-based, mouse; conditions: 1 μM, 18 hrs
Experimental: For analysis of thymocytes, fresh thymus was passed through a cell strainer (Becton Dickinson) in order to produce single cell suspensions for analysis and resuspended in RPMI-1640 media containing 10% fetal calf serum. For thymocyte proliferation assays, cells were seeded in 96-well plates at 1×10^5 cells per well and subjected to the following conditions: no mitogen, PMA (1 ng/ml)+ionomycin (50 ng/ml), and 3 μg/ml anti-CD3e (eBioscience)+100 U IL-2. Cells were grown for 48 hours, pulsed with 1 μCi [3H]-thymidine (Amersham) for the last 16 hours. Incorporated [3H]-thymidine was measured using the 1450 MicroBeta Trilux Scintillation and Luminescence Counter. For analysis of apoptosis, thymocytes were plated in 12-well plates (1×10^6 cells per well) and treated with 5 Gy gamma-irradiation or 1 μM dexamethasone for 18 hours. Cell viability was determined by staining the cells with propidium iodide and performing flow cytometric analysis.

lung ECs = experiment: MTT viability assay, lung endothelial cells; format: cell-based, mouse
Experimental: (§1) 100 ng/ml FGF, or 10% FBS.

liver ECs [2] = experiment: MTT viability assay, liver endothelial cells; format: cell-based, mouse
Experimental: as §1

liver ECs [3] = tested on: liver ECs
Experimental: Livers of Mx-Cre^+ or Mx-Cre^− mice injected with pI-pC 3 weeks prior were used for the isolation of liver ECs. Liver tissues were homogenized and digested in collagenase D and lysates were run through a cell strainer. ECs were enriched by taking the interphase of a 30% Histodenz (Sigma) and RPMI suspension of cells overlaid after spinning at 1500×g for 20 min. Cells were further affinity isolated by CD31-M450 prebound magnetic beads. […] VEGF and basic FGF were obtained from the Biological Resources Branch, NCI Preclinical Repository. Cells were grown in DMEM+0.5% BSA supplemented with 100 ng/ml VEGF. 100 ng/ml FGF, or 10% FBS. EC proliferation and apoptosis were measured with the BrdU labelling and detection kit (Roche) and the In situ cell death detection kit (Roche), respectively per the manufacturer's instruction. Viability of cells after various treatments was measured by MTT (2,3-bis-(2-methoxy-4-nitro-5-sulfophenyl)-2H-tetrazolium-5-carboxanilide) assays in 96 well plates. […] Vector (pLKO) alone and pLKO-GFP were used as controls to exclude non-specific responses. Cells were selected for 96 hrs with puromycin (1 μg/ml) and used for further assays.

VEGF = conditions: intravitreal, proliferative diabetic retinopathy, short term therapy; cited from earlier work
Sequence of VEGF (P15692 207-311 limits assumed): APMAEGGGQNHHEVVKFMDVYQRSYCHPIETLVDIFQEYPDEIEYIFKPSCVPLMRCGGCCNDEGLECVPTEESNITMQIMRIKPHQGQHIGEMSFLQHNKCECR

`Cc1c2ccccc2c(C)c2c1ccc1ccccc12` [DMBA, 7,12-dimethylbenz-alpha-anthracene] showed a median survival ([1]; FoxO4+/+ mice) of 27.3 weeks and a median survival ([1]; FoxO4-/- mice) of 23.4 weeks.

With `C[C@@H]1C[C@H]2[C@@H]3CCC4=CC(=O)C=C[C@]4(C)[C@@]3(F)[C@@H](O)C[C@]2(C)[C@@]1(O)C(=O)CO` [dexamethasome, dexamethasone] the survival (thymocytes; Mx-Cre+ thymocytes) was 69.3±0.7 % survival and the survival (thymocytes; Mx-Cre- thymocytes) was 50.6±2.6 % survival.

For “TGF-β1: cytokine known to induce EC cytostasis through Smad signalling”, the sensitivity to stimulation (lung ECs; lung ECs irrespective of FoxO status) was “insensitive”, the survival upon exposure (liver ECs [2]; Mx-Cre- liver ECs (reduced survival)) was about 60% and the survival upon exposure (liver ECs [2]; liver ECs, much less sensitive) was about 90%.

In the case of VEGF, the increase in viability (lung ECs; Mx-Cre+ lung ECs) is reported as 47.2%, the increase in viability (lung ECs; Mx-Cre- lung ECs) is reported as 41.7% and the “increase in viability (proliferation upon stimulation)” value (liver ECs [2]; Mx-Cre+ liver ECs) is reported as 73.3%. The “increase in viability (proliferation upon stimulation)” value (liver ECs [2]; Mx-Cre- liver ECs) was 17.9%, the “tube length (VEGF-induced tube formation)” value (liver ECs [3]; Mx-Cre+ liver ECs) was 4123±318 μm and the “tube length (VEGF-induced tube formation)” value (liver ECs [3]; Mx-Cre- liver ECs) was 3229±285 μm.

For “bevacizumab: humanized anti-VEGF-A monoclonal antibody”, the angiographic leaking (VEGF) is listed as “complete resolution of angiographic leaking”.
